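These data come from cells grown in 96-well plates and exposed to compound for 48 hours at five concentrations. Abbreviation: GI50, concentration required for 50% inhibition of growth. TGI: total growth inhibition.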
How the values were obtained:
Experiment in all cases: NCI anticancer screen, dose series, 48 h
786-0 renal = tested on: 786-0 renal
A498 renal = tested on: A498 renal
A549 NSCLC = tested on: A549 NSCLC
ACHN renal = tested on: ACHN renal
CAKI-1 renal = tested on: CAKI-1 renal
CCRF-CEM leukemia = tested on: CCRF-CEM leukemia
COLO 205 colon = tested on: COLO 205 colon
DLD-1 colon = tested on: DLD-1 colon
DMS 114 small cell lung = tested on: DMS 114 small cell lung
DMS 273 small cell lung = tested on: DMS 273 small cell lung
HCT-116 colon = tested on: HCT-116 colon
HL-60(TB) leukemia = tested on: HL-60(TB) leukemia
HOP-18 NSCLC = tested on: HOP-18 NSCLC
HOP-92 NSCLC = tested on: HOP-92 NSCLC
HT29 colon = tested on: HT29 colon
IGROV1 ovarian = tested on: IGROV1 ovarian
K-562 leukemia = tested on: K-562 leukemia
KM12 colon = tested on: KM12 colon
KM20L2 colon = tested on: KM20L2 colon
LOX IMVI melanoma = tested on: LOX IMVI melanoma
LXFL 529 NSCLC = tested on: LXFL 529 NSCLC
M14 melanoma = tested on: M14 melanoma
MALME-3M melanoma = tested on: MALME-3M melanoma
MOLT-4 leukemia = tested on: MOLT-4 leukemia
NCI-H226 lung = tested on: NCI-H226 lung
NCI-H23 lung = tested on: NCI-H23 lung
NCI-H460 lung = tested on: NCI-H460 lung
NCI-H522 lung = tested on: NCI-H522 lung
OVCAR-3 ovarian = tested on: OVCAR-3 ovarian
OVCAR-4 ovarian = tested on: OVCAR-4 ovarian
OVCAR-5 ovarian = tested on: OVCAR-5 ovarian
OVCAR-8 ovarian = tested on: OVCAR-8 ovarian
RPMI-8226 leukemia = tested on: RPMI-8226 leukemia
RXF 393 renal = tested on: RXF 393 renal
SF-268 CNS = tested on: SF-268 CNS
SF-295 CNS = tested on: SF-295 CNS
SF-539 CNS = tested on: SF-539 CNS
SK-MEL-2 melanoma = tested on: SK-MEL-2 melanoma
SK-MEL-28 melanoma = tested on: SK-MEL-28 melanoma
SK-MEL-5 melanoma = tested on: SK-MEL-5 melanoma
SK-OV-3 ovarian = tested on: SK-OV-3 ovarian
SN12C renal = tested on: SN12C renal
SNB-19 CNS = tested on: SNB-19 CNS
SNB-75 CNS = tested on: SNB-75 CNS
SR leukemia = tested on: SR leukemia
SW-620 colon = tested on: SW-620 colon
TK-10 renal = tested on: TK-10 renal
U251 CNS = tested on: U251 CNS
UACC-257 melanoma = tested on: UACC-257 melanoma
UACC-62 melanoma = tested on: UACC-62 melanoma
UO-31 renal = tested on: UO-31 renal
XF 498 CNS = tested on: XF 498 CNS

CC(=O)[CH-]C(C)=O.CC(=O)[CH-]C(C)=O.CC(=O)[CH-]C(C)=O.[In+3]
GI50 (786-0 renal): > 100 µM
TGI (786-0 renal): > 100 µM
GI50 (A498 renal): > 100 µM
TGI (A498 renal): > 100 µM
GI50 (A549 NSCLC): > 100 µM
TGI (A549 NSCLC): > 100 µM
GI50 (ACHN renal): > 100 µM
TGI (ACHN renal): > 100 µM
GI50 (CAKI-1 renal): > 100 µM
TGI (CAKI-1 renal): > 100 µM
GI50 (CCRF-CEM leukemia): > 100 µM
TGI (CCRF-CEM leukemia): > 100 µM
GI50 (COLO 205 colon): > 100 µM
TGI (COLO 205 colon): > 100 µM
GI50 (DLD-1 colon): > 100 µM
TGI (DLD-1 colon): > 100 µM
GI50 (DMS 114 small cell lung): > 100 µM
TGI (DMS 114 small cell lung): > 100 µM
GI50 (DMS 273 small cell lung): > 100 µM
TGI (DMS 273 small cell lung): > 100 µM
GI50 (HCT-116 colon): > 100 µM
TGI (HCT-116 colon): > 100 µM
GI50 (HL-60(TB) leukemia): > 100 µM
TGI (HL-60(TB) leukemia): > 100 µM
GI50 (HOP-18 NSCLC): 52.4 µM
TGI (HOP-18 NSCLC): > 100 µM
GI50 (HOP-92 NSCLC): > 100 µM
TGI (HOP-92 NSCLC): > 100 µM
GI50 (HT29 colon): > 100 µM
TGI (HT29 colon): > 100 µM
GI50 (IGROV1 ovarian): > 100 µM
TGI (IGROV1 ovarian): > 100 µM
GI50 (K-562 leukemia): > 100 µM
TGI (K-562 leukemia): > 100 µM
GI50 (KM12 colon): > 100 µM
TGI (KM12 colon): > 100 µM
GI50 (KM20L2 colon): > 100 µM
TGI (KM20L2 colon): > 100 µM
GI50 (LOX IMVI melanoma): > 100 µM
TGI (LOX IMVI melanoma): > 100 µM
GI50 (LXFL 529 NSCLC): > 100 µM
TGI (LXFL 529 NSCLC): > 100 µM
GI50 (M14 melanoma): > 100 µM
TGI (M14 melanoma): > 100 µM
GI50 (MALME-3M melanoma): > 100 µM
TGI (MALME-3M melanoma): > 100 µM
GI50 (MOLT-4 leukemia): > 100 µM
TGI (MOLT-4 leukemia): > 100 µM
GI50 (NCI-H226 lung): > 100 µM
TGI (NCI-H226 lung): > 100 µM
GI50 (NCI-H23 lung): > 100 µM
TGI (NCI-H23 lung): > 100 µM
GI50 (NCI-H460 lung): > 100 µM
TGI (NCI-H460 lung): > 100 µM
GI50 (NCI-H522 lung): > 100 µM
TGI (NCI-H522 lung): > 100 µM
GI50 (OVCAR-3 ovarian): > 100 µM
TGI (OVCAR-3 ovarian): > 100 µM
GI50 (OVCAR-4 ovarian): > 100 µM
TGI (OVCAR-4 ovarian): > 100 µM
GI50 (OVCAR-5 ovarian): > 100 µM
TGI (OVCAR-5 ovarian): > 100 µM
GI50 (OVCAR-8 ovarian): > 100 µM
TGI (OVCAR-8 ovarian): > 100 µM
GI50 (RPMI-8226 leukemia): > 100 µM
TGI (RPMI-8226 leukemia): > 100 µM
GI50 (RXF 393 renal): > 100 µM
TGI (RXF 393 renal): > 100 µM
GI50 (SF-268 CNS): > 100 µM
TGI (SF-268 CNS): > 100 µM
GI50 (SF-295 CNS): > 100 µM
TGI (SF-295 CNS): > 100 µM
GI50 (SF-539 CNS): > 100 µM
TGI (SF-539 CNS): > 100 µM
GI50 (SK-MEL-2 melanoma): > 100 µM
TGI (SK-MEL-2 melanoma): > 100 µM
GI50 (SK-MEL-28 melanoma): > 100 µM
TGI (SK-MEL-28 melanoma): > 100 µM
GI50 (SK-MEL-5 melanoma): > 100 µM
TGI (SK-MEL-5 melanoma): > 100 µM
GI50 (SK-OV-3 ovarian): > 100 µM
TGI (SK-OV-3 ovarian): > 100 µM
GI50 (SN12C renal): > 100 µM
TGI (SN12C renal): > 100 µM
GI50 (SNB-19 CNS): > 100 µM
TGI (SNB-19 CNS): > 100 µM
GI50 (SNB-75 CNS): > 100 µM
TGI (SNB-75 CNS): > 100 µM
GI50 (SR leukemia): > 100 µM
TGI (SR leukemia): > 100 µM
GI50 (SW-620 colon): > 100 µM
TGI (SW-620 colon): > 100 µM
GI50 (TK-10 renal): > 100 µM
TGI (TK-10 renal): > 100 µM
GI50 (U251 CNS): > 100 µM
TGI (U251 CNS): > 100 µM
GI50 (UACC-257 melanoma): > 100 µM
TGI (UACC-257 melanoma): > 100 µM
GI50 (UACC-62 melanoma): > 100 µM
TGI (UACC-62 melanoma): > 100 µM
GI50 (UO-31 renal): > 100 µM
TGI (UO-31 renal): > 100 µM
GI50 (XF 498 CNS): > 100 µM
TGI (XF 498 CNS): > 100 µM

— PubChem BioAssay (NCI)
